Laboratory results published in patent US12297192B2, “Crystal form of pyrimidine sulfonamide compound and preparation method therefor” (WUXI BIOCITY BIOPHARMACEUTICS CO., LTD., priority 2019, dated 2025).
Like-named read-outs stand apart in the source and are kept apart here.

Experiments:
[1] = Pharmacokinetics accompanying the efficacy in the MCT-induced rat model of pulmonary hypertension; assay type: in vivo, SD rats; settings: day 21, mean, n = 3; for MRT inf: read-out: MRT0-inf; for MRT last: read-out: MRT0-last
Method: Blood samples were taken before and after dosing on the day of the endpoint, at time points of 0, 0.25, 0.5, 1, 2, 4, 6 and 8 h. The rats were placed in a fixator, 250 μL of blood was collected from the tail vein, transferred to an EP tube with anticoagulant (5-8 μL of 15% EDTA), inverted and shaken, and immediately placed on wet ice for temporary storage. The collected blood samples were placed in centrifugal machines and centrifuged at 4° C., 3000 rpm for 15 min. The plasma was collected after centrifugation and immediately placed on dry ice. After all samples have been collected and transferred to cryopreservation at −80° C. for pharmacokinetic analysis.
Blood samples were collected before and after dosing on day 21 and collected at time points 0, 0.25, 0.5, 1, 2, 4, 6 and 8 h for analysis of plasma drug concentrations of the compound of formula (I) and Macitentan.

[2] = target: T1, bile salt export pump (BSEP) (Homo sapiens, UniProt O95342); test: Inhibition test on bile salt export pump (BSEP), taurocholic acid uptake in BSEP-Hi5-VT vesicles; assay type: in vitro ADME
T1 construct: purchased Solvo Biotechnology SB-BSEP-Hi5-VT; host or cells: Hi5 insect cells (read from the product name), membrane vesicles
Method: Compounds were diluted to 100 mM with DMSO; then subjected to a serial dilution of 3-fold for eleven dilutions. The minimum concentration was 0.169 μM. • 2. […] The minimum concentration was 19.5 μM. Experimental Protocol: • 1. ECHO was used to transfer 0.3 μl of DMSO solution of the compounds or diluted DMSO to the corresponding wells of the compounds plate, respectively. • 2. 14.7 μl of ATP Buffer was added into the corresponding wells of the compounds and the zero percent effect (ZPE), respectively. • 3. 14.7 μl of AMP Buffer was added into the corresponding wells of the hundred percent effect (HPE). • 4. The plate was shaken for 10 minutes at 25° C. • 5. 15 μl of BSEP-Hi5-VT Vesicle solution was added to each well separately and the plate was shaken for a further 40 minutes at 25° C. • 6. 5 μl of 0.5 M Ethylenediaminetetraacetic acid (EDTA) solution was immediately added to each well, followed by 65 μl of Buffer B. All reactions were complete. • 7. After the reactions were complete, 95 μl of liquid was transferred from the compounds plate to the filter plate using apparatus. • 8. The liquid receiving plate was placed under the filter plate. Then the liquid was removed using a centrifuge. The liquid on the receiving plate was discarded. • 9. 90 μl of Buffer B was added to the filter plate. The liquid receiving plate was placed under the filter plate. Then the liquid was removed using a centrifuge. The liquid on the receiving plate was discarded. The filter plate was washed three times in total. • 10. The filter plate was left to dry overnight. • 11. On the next day, 80 μl of methanol/water (80/20, v/v) solution was added to the filter plate. • 12. The plate was vibrated for 15 minutes after applying the film to the filter plate. • 13. […] Taurocholic acid in the receiving plate was determined using LC/MS/MS.
Several concentrations were tested in each experiment and the data was analyzed using Prism to produce a concentration-response curve to calculate the IC50 values of the compounds.

[3] = target: T2, Human Pregnane X Receptor (PXR) (Homo sapiens, UniProt O75469); test: Human pregnane X receptor (PXR) test, induction of PXR-mediated CYP3A expression in DPX2 cells; assay type: in vitro ADME
T2 construct: host or cells: DPX2 cells
T2 sequence (O75469 1-434): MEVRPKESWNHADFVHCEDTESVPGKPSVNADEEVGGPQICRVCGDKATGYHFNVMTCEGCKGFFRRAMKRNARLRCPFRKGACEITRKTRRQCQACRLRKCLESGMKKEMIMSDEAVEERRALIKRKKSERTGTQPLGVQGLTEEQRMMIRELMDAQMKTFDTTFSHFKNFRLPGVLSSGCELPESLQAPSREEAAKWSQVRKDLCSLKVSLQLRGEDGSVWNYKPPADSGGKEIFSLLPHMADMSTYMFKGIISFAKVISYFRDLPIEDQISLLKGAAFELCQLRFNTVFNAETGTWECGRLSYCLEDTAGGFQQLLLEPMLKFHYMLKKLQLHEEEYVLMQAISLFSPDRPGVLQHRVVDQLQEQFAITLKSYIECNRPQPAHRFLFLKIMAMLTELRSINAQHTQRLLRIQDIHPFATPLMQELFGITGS
Method: To assess the induction of PXR-mediated CYP3A expression by the compounds.
Experimental Protocol: • 1. The DPX2 cells was thawed under aseptic conditions. • 2. The DPX2 cytosol was distributed in 96-well plates (100 μl/well) and placed the plates in a 5% CO2/37° C. incubator overnight. • 3. The quantitative feeding medium was thawed in a 37° C. water bath. The positive control rifampicin was thawed at room temperature. A series of the test compound and positive control dilutions were prepared in quantitative feeding medium. The medium was carefully aspirated and discarded from each well, without disturbing the cells during the aspiration process. […] Enzyme activity test: • (1) 7 μl of Luciferin-IPA was added to 7 ml of quantitative feeding medium, inverted to mix, and poured into the Luciferin-IPA reagent tank. • (2) The 96-well plate was taken out of the incubator and the medium was carefully aspirated from each well. […] The plate was placed back to the incubator for 60 minutes. • (7) 40 μl of Luciferin detection reagent/P450-Glo buffer was added to each well of the replicate plate, stirred and incubated for 20 minutes at room temperature. • (8) After incubation with Luciferin detection reagent for 20 minutes, a luminometer (set for 1-5 seconds. Read out time) was used to determine the luminescence of each well of the white 96-well plate. […] The fluorescence intensity of each well was measured. […]

[4] = Sprague-Dawley, rat, plasma, po, 1 mg/kg gavage
[5] = Sprague-Dawley, rat, plasma, po, 3 mg/kg gavage
[6] = Sprague-Dawley, rat, plasma, po, 30 mg/kg gavage

T1 sequence (O95342 whole entry): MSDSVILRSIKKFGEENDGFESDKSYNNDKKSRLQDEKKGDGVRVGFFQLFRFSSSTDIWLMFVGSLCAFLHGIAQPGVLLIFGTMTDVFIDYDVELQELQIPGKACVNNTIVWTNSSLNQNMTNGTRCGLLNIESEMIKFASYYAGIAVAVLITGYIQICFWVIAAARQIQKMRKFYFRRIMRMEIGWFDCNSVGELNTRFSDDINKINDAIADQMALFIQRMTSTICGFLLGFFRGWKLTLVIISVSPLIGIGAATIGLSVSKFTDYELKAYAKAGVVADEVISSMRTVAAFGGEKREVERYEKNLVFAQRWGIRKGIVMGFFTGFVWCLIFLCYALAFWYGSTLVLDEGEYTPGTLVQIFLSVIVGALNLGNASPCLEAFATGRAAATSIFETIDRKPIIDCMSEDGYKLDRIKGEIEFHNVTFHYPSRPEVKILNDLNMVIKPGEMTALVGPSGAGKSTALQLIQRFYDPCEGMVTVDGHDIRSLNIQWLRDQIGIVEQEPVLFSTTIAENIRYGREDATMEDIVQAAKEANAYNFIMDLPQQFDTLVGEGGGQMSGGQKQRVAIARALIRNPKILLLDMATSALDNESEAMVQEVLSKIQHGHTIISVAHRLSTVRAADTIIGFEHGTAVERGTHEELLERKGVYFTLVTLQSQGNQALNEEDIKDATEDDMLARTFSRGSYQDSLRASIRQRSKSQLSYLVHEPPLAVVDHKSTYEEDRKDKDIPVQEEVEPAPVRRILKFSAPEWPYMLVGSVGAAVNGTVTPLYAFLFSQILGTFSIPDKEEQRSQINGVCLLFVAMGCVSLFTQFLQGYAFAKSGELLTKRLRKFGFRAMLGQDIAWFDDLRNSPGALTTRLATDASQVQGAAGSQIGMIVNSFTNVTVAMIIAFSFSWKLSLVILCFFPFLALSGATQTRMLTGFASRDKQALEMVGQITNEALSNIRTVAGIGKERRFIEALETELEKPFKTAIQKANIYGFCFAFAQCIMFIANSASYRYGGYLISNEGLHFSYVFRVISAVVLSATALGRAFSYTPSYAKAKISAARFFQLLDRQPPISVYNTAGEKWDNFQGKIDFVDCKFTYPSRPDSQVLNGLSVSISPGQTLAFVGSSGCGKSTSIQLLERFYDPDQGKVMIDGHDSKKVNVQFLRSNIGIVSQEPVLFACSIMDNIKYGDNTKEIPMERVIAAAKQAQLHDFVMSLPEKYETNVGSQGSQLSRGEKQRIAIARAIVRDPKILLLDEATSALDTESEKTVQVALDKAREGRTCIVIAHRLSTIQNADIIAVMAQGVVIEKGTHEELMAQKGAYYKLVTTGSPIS

Work on `COCCNS(=O)(=O)Nc1ncnc(OCCOc2ncc(Br)cn2)c1-c1ccc2c(c1)OCO2` [Compound of formula (I)] yielded an AUC0-inf/AUC0-last ([1]; 1 mg/kg gavage) of 111%, a Tlast ([1]; 1 mg/kg gavage) of 8.00 h and an AUC0-inf/AUC0-last ([1]; 3 mg/kg gavage) of 132%. The AUC(0-inf) ([1]; 3 mg/kg gavage) was 5540 ng·h/mL, the Tlast ([1]; 3 mg/kg gavage) was 8.00 h and the AUC(0-inf) ([1]; Sprague-Dawley, rat, plasma, po, 1 mg/kg, 1 mg/kg gavage, read-out: AUC0-inf) was 1410 ng·h/mL. For the same compound, the AUC(0-inf) ([1]; Sprague-Dawley, rat, plasma, po, 3 mg/kg, 3 mg/kg gavage, read-out: AUC0-inf) was 5230 ng·h/mL, the AUC(0-t) [1, 4] was 1270 ng·h/mL and the Cmax [1, 4] was 345 nM. It also gave a Tmax [1, 4] of 1 h, a half-life [1, 4] of 2.3 h and an MRT inf [1, 4] of 3.64 h. It also gave an MRT last [1, 4] of 2.83 h, an AUC(0-t) [1, 5] of 4220 ng·h/mL and a Cmax [1, 5] of 1120 nM. The Tmax [1, 5] was 1 h, the half-life [1, 5] was 3.64 h and the MRT inf [1, 5] was 5.52 h. For the same compound, the MRT last [1, 5] was 3.04 h, the “Inhibitory effect on bile salt export pump (in words)” value [2] was “extremely weak inhibitory effect” and the “Induction of PXR-mediated CYP3A expression (in words)” value [3] was “weak induction”.

`CCCNS(=O)(=O)Nc1ncnc(OCCOc2ncc(Br)cn2)c1-c1ccc(Br)cc1` [Macitentan, reference compound] gave a Tlast ([1]; 30 mg/kg gavage) of 8.00 h, an AUC(0-t) [1, 6] of 11000 ng·h/mL and a Cmax [1, 6] of 1840 nM. For the same compound, the Tmax [1, 6] was 4.08 h, the MRT last [1, 6] was 4.38 h and the “Inhibitory effect on bile salt export pump (in words)” value [2] was “strong inhibitory effect”. The IC50 ([2]; taurocholic acid substrate, BSEP-Hi5-VT vesicles) was 470 nM and the “Induction of PXR-mediated CYP3A expression (in words)” value [3] was “strong induction”.
